For three molecules, IC50 and Activity results are on record in ChEMBL document CHEMBL1287667, “A targeted low molecular weight near-infrared fluorescent probe for prostate cancer” (Bioorg Med Chem Lett, 2010).

The source made the active and inactive calls. The rule behind the calls is not given here.

What is called IC50 is the concentration that gives 50% inhibition. A higher IC50 goes with weaker potency in that assay.

In assay [1] the target is T1, Glutamate carboxypeptidase 2 (Homo sapiens, UniProt Q04609). The assay can be described thus: Inhibition of PSMA in human LNCaP cells. Type of assay: cell-based.
Target sequence in this assay (Q04609 whole entry): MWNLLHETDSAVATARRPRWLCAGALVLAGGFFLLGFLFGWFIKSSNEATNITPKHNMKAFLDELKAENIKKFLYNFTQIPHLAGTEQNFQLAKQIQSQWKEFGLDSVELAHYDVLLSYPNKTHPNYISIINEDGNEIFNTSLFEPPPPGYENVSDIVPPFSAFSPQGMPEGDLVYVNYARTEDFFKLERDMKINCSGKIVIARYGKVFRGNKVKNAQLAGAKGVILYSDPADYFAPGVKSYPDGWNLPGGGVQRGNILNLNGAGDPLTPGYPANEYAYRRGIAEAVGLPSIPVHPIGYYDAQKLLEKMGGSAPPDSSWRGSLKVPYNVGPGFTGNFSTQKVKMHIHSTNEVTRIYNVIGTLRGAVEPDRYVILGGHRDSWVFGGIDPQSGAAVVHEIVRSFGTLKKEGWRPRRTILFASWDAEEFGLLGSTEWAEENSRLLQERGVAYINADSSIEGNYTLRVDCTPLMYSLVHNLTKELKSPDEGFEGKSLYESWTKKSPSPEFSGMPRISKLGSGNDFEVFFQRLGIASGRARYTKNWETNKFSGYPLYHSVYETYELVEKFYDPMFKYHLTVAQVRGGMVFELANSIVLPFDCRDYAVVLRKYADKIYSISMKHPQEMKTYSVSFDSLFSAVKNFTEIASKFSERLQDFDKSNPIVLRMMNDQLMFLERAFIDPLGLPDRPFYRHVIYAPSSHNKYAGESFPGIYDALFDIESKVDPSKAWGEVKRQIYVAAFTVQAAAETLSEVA
For assay [2], the target named is T1, Glutamate carboxypeptidase 2. Kind of assay: Reversible inhibition of purified PSMA at 10 times IC50 after 25 mins measured after 100 fold dilution.
Target sequence in this assay (Q04609 whole entry, looked up): as the sequence (Q04609 whole entry) above

Turning to `CCN1/C(=C/C=C/C=C/C2=[N+](CCCCCC(=O)[O-])c3ccc4c(S(=O)(=O)O)cc(S(=O)(=O)O)cc4c3C2(C)C)C(C)(C)c2c1ccc1c(S(=O)(=O)O)cc(S(=O)(=O)O)cc21`, the half-maximal inhibitory concentration (IC50) in assay [1] was found to be 6100 nM.

Turning to `CCN1/C(=C/C=C/C=C/C2=[N+](CCCCCC(=O)N[C@@H](CCC(=O)N[C@@H](COP(=O)([O-])O[C@@H](CCC(=O)O)C(=O)O)C(=O)O)C(=O)O)c3ccc4c(S(=O)(=O)O)cc(S(=O)(=O)O)cc4c3C2(C)C)C(C)(C)c2c1ccc1c(S(=O)(=O)O)cc(S(=O)(=O)O)cc21`, in assay [1], inhibition was half-maximal at 0.55 nM (IC50). In assay [2], the result was Active.

As for `N[C@@H](CCC(=O)N[C@@H](COP(=O)(O)O[C@@H](CCC(=O)O)C(=O)O)C(=O)O)C(=O)O`, the IC50 in assay [1] came out at 144 nM. In addition, the result in assay [2] was Active.
